In patent US20080171732A1, “New Pyridine Analogues IX 519” (AstraZeneca AB, priority 2007, published 2008) one finds IC50 data, which are given here for 14 molecules.

As a reminder, the IC50 is the point on the concentration scale where inhibition reaches its midpoint.

This experiment deals with T1, P2Y12 receptor (Homo sapiens, UniProt Q9H244).
T1 construct: expressed in transfected cells; host or cells: CHO cells (membranes)
T1 sequence (Q9H244 whole entry): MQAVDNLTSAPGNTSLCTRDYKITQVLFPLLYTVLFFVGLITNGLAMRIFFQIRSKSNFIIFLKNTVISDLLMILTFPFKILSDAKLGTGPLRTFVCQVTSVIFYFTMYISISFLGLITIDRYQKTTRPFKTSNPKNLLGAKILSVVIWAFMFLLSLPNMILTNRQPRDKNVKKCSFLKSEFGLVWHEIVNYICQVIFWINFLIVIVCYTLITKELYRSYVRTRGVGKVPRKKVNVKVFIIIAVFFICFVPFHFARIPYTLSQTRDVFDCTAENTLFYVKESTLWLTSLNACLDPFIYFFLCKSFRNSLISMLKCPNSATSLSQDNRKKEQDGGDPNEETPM
The experiment can be described thus: Functional inhibition of 2-Me-S-ADP induced P2Y12 signalling (35S-GTPγS, cell membranes from P2Y12 transfected CHO-cells). Format: biochemical. As to conditions: EC80 concentration of agonist 2-methyl-thio-adenosine diphosphate, 30° C., 45 min. The method, then:
Functional inhibition of-the P2Y12 receptor can be measured by in vitro assays using cell membranes from P2Y12 transfected CHO-cells, the methodology is indicated below.
(§1) Functional inhibition of 2-Me-S-ADP induced P2Y12 signalling: 5 μg of membranes were diluted in 200 μl of 200 mM NaCl, 1 mM MgCl2, 50 mM HEPES (pH 7.4), 0.01% BSA, 30μg/ml saponin and 10 μM GDP. To this was added an EC80 concentration of agonist (2-methyl-thio-adenosine diphosphate), the required concentration of test compound and 0.1 μCi ^35S-GTPγS. The reaction was allowed to proceed at 30° C. for 45 min. Samples were then transferred on to GF/B filters using a cell harvester and washed with wash buffer (50 mM Tris (pH 7.4), 5 mM MgCl2, 50 mM NaCl). Filters were then covered with scintilant and counted for the amount of ^35S-GTPγS retained by the filter. Maximum activity was that determined in the presence of the agonist and minimum activity in the absence of the agonist following subtraction of the value determined for non-specific activity. The effect of compounds at various concentrations was plotted according to the equation
y=A+((B−A)/(1+((C/x)̂D)))
and IC50 estimated where • A is the bottom plateau of the curve i.e. the final minimum y value • B is the top of the plateau of the curve i.e. the final maximum y value • C is the x value at the middle of the curve. This represents the log EC50 value when A+B=100 • D is the slope factor. • x is the original known x values. • Y is the original known y values.
as §1, with “30 μg/ml” for “30μg/ml”, “0. 1” for “0.1”
As to `CCOC(=O)c1cc(C#N)c(N2CC(C(=O)NS(=O)(=O)Cc3ccc(Cl)cc3F)C2)nc1OC` [Example 31, Ethyl6-(3-{[(4-chloro-2-fluorobenzyl)sulfonyl]carbamoyl}azetidin-1-yl)-5-cyano-2-methoxynicotinate], the concentration for half-maximal inhibition (IC50) was determined as 0.005 µM.

`CCOC(=O)c1cc(C#N)c(N2CCC(C(=O)NS(=O)(=O)Cc3ccc(F)cc3F)CC2)nc1OC` [Example 16, Ethyl5-cyano-6-(4-{[(2,4-difluorobenzyl)sulfonyl]carbamoyl}piperidin-1-yl)-2-methoxynicotinate] had a half-maximal inhibitory concentration (IC50) of 0.008 µM.

For `CCOC(=O)c1cc(Cl)c(N2CCC(C(=O)NS(=O)(=O)Cc3ccccc3)CC2)nc1SC` [Example 54, Ethyl6-{4-[(benzylsulfonyl)carbamoyl]piperidin-1-yl}-5-chloro-2-(methylthio)nicotinate], the IC50 was determined as 0.039 µM.

Turning to `CCOC(=O)c1cc(C#N)c(N2CCC(C(=O)NS(=O)(=O)Cc3ccccc3)CC2)nc1OCC` [Example 3, Ethyl6-{4-[(benzylsulfonyl)carbamoyl]piperidin-1-yl}-5-cyano-2-ethoxynicotinate], the 50% inhibitory concentration (IC50) turned out to be 0.012 µM.

In turn, `CCOC(=O)c1cc(C#N)c(N2CCC(C(=O)NS(=O)(=O)Cc3cccc(F)c3)CC2)nc1OC` [Example 10, Ethyl5-cyano-6-(4-{[(3-fluorobenzyl)sulfonyl]carbamoyl}piperidin-1-yl)-2-methoxynicotinate] came in with a 50% inhibitory concentration (IC50) of 0.016 µM.

For the molecule `CCOCc1nc(N2CCC(C(=O)NS(=O)(=O)Cc3ccccc3)CC2)c(C#N)cc1C(=O)OCC` [Example 34, Ethyl6-{4-[(benzylsulfonyl)carbamoyl]piperidin-1-yl}-5-cyano-2-(ethoxymethyl)nicotinate], the half-maximal inhibitory concentration (IC50) turned out to be 0.034 µM.

`CCOC(=O)c1cc(C#N)c(N2CCC(C(=O)NS(=O)(=O)Cc3ccccc3)CC2)nc1Cn1ccnc1` [Example 49, Ethyl6-{4-[(benzylsulfonyl)carbamoyl]piperidin-1-yl}-5-cyano-2-(1H-imidazol-1-ylmethyl)nicotinate] displayed an IC50 of 0.073 µM.

On to `CCOC(=O)c1cc(C#N)c(N2CCC(C(=O)NS(=O)(=O)Cc3ccccc3)CC2)nc1SCC` [Example 4, Ethyl6-{4-[(benzylsulfonyl)carbamoyl]piperidin-1-yl}-5-cyano-2-(ethylthio)nicotinate], for which the IC50 stood at 0.006 µM.

The molecule `CCOC(=O)c1cc(C#N)c(N2CCC(C(=O)NS(=O)(=O)Cc3ccc(F)cc3)CC2)nc1OC` [Example 11, Ethyl5-cyano-6-(4-{[(4-fluorobenzyl)sulfonyl]carbamoyl}piperidin-1-yl)-2-methoxynicotinate] showed an IC50 of 0.009 µM.

In turn, `CCOC(=O)c1cc(C#N)c(N2CC(C(=O)NS(=O)(=O)Cc3ccccc3)C2)nc1CO` [Example 37, Ethyl6-{3-[(benzylsulfonyl)carbamoyl]azetidin-1-yl}-5-cyano-2-(hydroxymethyl)nicotinate] showed an IC50 of 0.047 µM.

For the molecule `CCOC(=O)c1cc(C#N)c(N2CCC(C(=O)NS(=O)(=O)Cc3ccccc3Cl)CC2)nc1OC` [Example 9, Ethyl6-(4-{[(2-chlorobenzyl)sulfonyl]carbamoyl}piperidin-1-yl)-5-cyano-2-methoxynicotinate], the IC50 came to 0.032 µM.

On to `CCOC(=O)c1cc(C#N)c(N2CCC(C(=O)NS(=O)(=O)Cc3ccc(C(F)(F)F)cc3)CC2)nc1OC` [Example 13, Ethyl5-cyano-2-methoxy-6-[4-({[4-(trifluoromethyl)benzyl]sulfonyl}carbamoyl)piperidin-1-yl]nicotinate], for which the IC50 was determined as 0.019 µM.

`CCOC(=O)c1cc(C#N)c(N2CCC(C(=O)NS(=O)(=O)Cc3ccccc3)CC2)nc1OC` [Example 1, Ethyl6-{4-[(benzylsulfonyl)carbamoyl]piperidin-1-yl}-5-cyano-2-methoxynicotinate] came in with an IC50 of 0.012 µM.

`CCOC(=O)c1cc(C#N)c(N2CC(C(=O)NS(=O)(=O)Cc3ccc(F)cc3F)C2)nc1OC` [Example 29, Ethyl5-cyano-6-(3-{[(2,4-difluorobenzyl)sulfonyl]carbamoyl}azetidin-1-yl)-2-methoxynicotinate] showed an IC50 of 0.01 µM.
